Series [1] can be described thus: Loss (consumption, evaporation or other disappearance) of the 2nd phase solvent during the fermentation. Set-up: species or system Yarrowia lipolytica. The conditions noted are these: loss of initial solvent volume, shake plate assay, after 4 days of growth period. An excerpt:
As used herein, the term “not disappearing” in connection with the second phase solvents as defined herein means that the same amount of solvent present at the start of the fermentation is still detectable at the end of the fermentation process. A loss or disappearance of solvent might be due to e.g. consumption by the host cell and/or evaporation during the fermentation. The terms “loss” or “disappearance” are used interchangeably herein. Such solvent as used for the process of the present invention is also called a “stable” solvent. Thus, a stable solvent according to the present invention means a loss or disappearance of the solvent during the fermentation in the range of about 20% or less, e.g. in the range of about 20, 15, 10, 8, 5, 3, 2, 1% or even no loss or disappearance of the solvent during the fermentation.
Shake plate assay. Typically, 200 μl of 0.25% yeast extract, 0.5% peptone (0.25X YP) is inoculated with 10 μl of freshly grown Yarrowia and overlaid with 200 μl of solvent. Candida rugosa Lipase (Creative enzymes) was resuspended in PBS and added to the growth media when the carbon source was 2% corn oil. […] The second phase (Drakeol 5, or others listed in table 6) fraction was removed from the shake plate wells and analyzed by UPLC on a normal phase column and/or C4 HPLC, with a photo-diode array detector (see details below). […]

Series [2] in a line: Density and viscosity in dependence of the solvent used as 2nd phase. Type of series: physicochemical. As for the experimental part:
The performance of said 2nd phases were tested with regards to growth, loss (consumption, evaporation or other ways of disappearance) of the solvents during the fermentation and the density and viscosity of the cultivation medium, wherein the test was carried out after 4 days of growth period.

`CCCCCCCCCCCC` [dode, n-dodecane]: the Loss is on record as 100% in series [1] and “completely disappeared” in series [1] (listed as n-dodecane). Besides, in series [2], the “Density” value was found to be 0.75 g/mL. In series [2] (measured at 20° C.), this compound displayed a Viscosity of 1.34.

These data come from patent US12716077B2, “Fermentative production of isoprenoids” (DSM IP ASSETS B.V., priority 2020, dated 2026).
